The values that follow come from patent US9242984B2, “Pyrazolyl derivatives as Syk inhibitors” (Merck Sharp & Dohme Corp., priority 2012, dated 2016).

Some results are limits rather than exact numbers.

For the first test, the target named is T1, recombinant human Syk (GST-hSyk fusion protein) (Homo sapiens, UniProt P43405).
T1 construct: purchased Carna Biosciences 08-176
The test is described as follows: Homogeneous Time-Resolved Fluorescence (HTRF) assay for the recombinant human Syk enzyme. The test is classed as biochemical. Particulars: 10-dose titration, 25 μM ATP; read-out: rhSYK IC50. Put shortly: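 IC50 came from a four-parameter fit over ten doses, 10 μM to 0.508 nM, with HTRF read-out (Eu-anti-pTyr antibody, SA-APC, EDTA stop, 30 min). The enzyme, 5 pM GST-hSyk, met compound for 10 min, then phosphorylated 250 nM biotin-peptide with 25 μM ATP and 5 mM Mg for 45 min at room temperature, pH 7.5.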
(Time-resolved FRET reads energy transfer from a long-lived donor to a nearby acceptor.)
In the case of `Cc1cc(Nc2nccc(C(F)F)n2)cc(-c2cnn(CCNS(C)(=O)=O)c2)c1` [Example 27.1, N-(2-(4-(3-((4-(Difluoromethyl)pyrimidin-2-yl)amino)-5-methylphenyl)-1H-pyrazol-1-yl)ethyl)methanesulfonamide], the IC50 is 8.6 nM.

The test is the same for the next values; noted with them: IC50 class; 10-dose titration, 25 μM ATP; read-out: rhSYK Activity.
`Cc1cc(Nc2nccc(C(F)F)n2)cc(-c2cnn(CC(C)(C)NC(=O)C3CC3)c2)c1` [Example 26.2, N-{2-[4-(3-{[4-(difluoromethyl)pyrimidin-2-yl]amino}-5-methylphenyl)-1H-pyrazol-1-yl]-1,1-dimethylethyl}cyclopropanecarboxamide]: the IC50 was at most 100 nM.
With `COCC(=O)NC(C)(C)Cn1cc(-c2cc(C)cc(Nc3nccc(C(F)F)n3)c2)cn1` [Example 26.3, N-{2-[4-(3-{[4-(difluoromethyl)pyrimidin-2-yl]amino}-5-methylphenyl)-1H-pyrazol-1-yl]-1,1-dimethylethyl}-2-methoxyacetamide], the IC50 is at most 100 nM.
As for `Cc1cc(Nc2nccc(C(F)F)n2)cc(-c2cnn(CCNC(=O)CC#N)c2)c1` [Example 26.4, 2-cyano-N-{2-[4-(3-{[4-(difluoromethyl)pyrimidin-2-yl]amino}-5-methylphenyl)-1H-pyrazol-1-yl]ethyl}acetamide], the IC50 was at most 100 nM.
In the case of `COCC(=O)NCCn1cc(-c2cc(C)cc(Nc3nccc(C(F)F)n3)c2)cn1` [Example 26.5, N-{2-[4-(3-{[4-(difluoromethyl)pyrimidin-2-yl]amino}-5-methylphenyl)-1H-pyrazol-1-yl]ethyl}-2-methoxyacetamide], the IC50 is at most 100 nM.
Still for that read-out and setting: next, `Cc1cc(Nc2nccc(C(F)F)n2)cc(-c2cnn(CCNS(C)(=O)=O)c2)c1` [Example 27.1, N-(2-(4-(3-((4-(Difluoromethyl)pyrimidin-2-yl)amino)-5-methylphenyl)-1H-pyrazol-1-yl)ethyl)methanesulfonamide]: at most 100 nM.
As for `COC(=O)NCCn1cc(-c2cc(C)cc(Nc3nccc(C(F)F)n3)c2)cn1` [Example 27.2, methyl {2-[4-(3-{[4-(difluoromethyl)pyrimidin-2-yl]amino}-5-methylphenyl)-1H-pyrazol-1-yl]ethyl}carbamate], the IC50 is at most 100 nM.
With `COCCOC(=O)NCCn1cc(-c2cc(C)cc(Nc3nccc(C(F)F)n3)c2)cn1` [Example 27.3, 2-methoxyethyl {2-[4-(3-{[4-(difluoromethyl)pyrimidin-2-yl]amino}-5-methylphenyl)-1H-pyrazol-1-yl]ethyl}carbamate], the IC50 is at most 100 nM.
The same measure, in the same setting: with `Cc1cc(Nc2nccc(C(F)F)n2)cc(-c2cnn(CC(C)(C)NS(C)(=O)=O)c2)c1` [Example 27.4, N-{2-[4-(3-{[4-(difluoromethyl)pyrimidin-2-yl]amino}-5-methylphenyl)-1H-pyrazol-1-yl]-1,1-dimethylethyl}methanesulfonamide] the figure was at most 100 nM.
On the same count and under the same terms, next, `Cc1cc(Nc2nccc(C(F)F)n2)cc(-c2cnn(CC(C)(C)NS(=O)(=O)C3CC3)c2)c1` [Example 27.5, N-{2-[4-(3-{[4-(difluoromethyl)pyrimidin-2-yl]amino}-5-methylphenyl)-1H-pyrazol-1-yl]-1,1-dimethylethyl}cyclopropanesulfonamide]: at most 100 nM; `Cc1cc(Nc2nccc(C(F)F)n2)cc(-c2cnn(CC(C)(C)NS(=O)(=O)N3CCOCC3)c2)c1` [Example 27.6, N-{2-[4-(3-{[4-(difluoromethyl)pyrimidin-2-yl]amino}-5-methylphenyl)-1H-pyrazol-1-yl]-1,1-dimethylethyl}morpholine-4-sulfonamide]: at most 100 nM.
Turning to `Cc1cc(Nc2nccc(C(F)F)n2)cc(-c2cnn(CC(C)(C)NC(=O)NC(C)(C)C)c2)c1` [Example 27.7, 1-tert-butyl-3-{2-[4-(3-{[4-(difluoromethyl)pyrimidin-2-yl]amino}-5-methylphenyl)-1H-pyrazol-1-yl]-1,1-dimethylethyl}urea], the IC50 is at most 100 nM.
The same measure, in the same setting: next, `CCNC(=O)NC(C)(C)Cn1cc(-c2cc(C)cc(Nc3nccc(C(F)F)n3)c2)cn1` [Example 27.8, 1-{2-[4-(3-{[4-(difluoromethyl)pyrimidin-2-yl]amino}-5-methylphenyl)-1H-pyrazol-1-yl]-1,1-dimethylethyl}-3-ethylurea]: at most 100 nM; `Cc1cc(Nc2nccc(C(F)F)n2)cc(-c2cnn(CC(C)(C)NC(=O)NCC3CCOCC3)c2)c1` [Example 27.9, 1-{2-[4-(3-{[4-(difluoromethyl)pyrimidin-2-yl]amino}-5-methylphenyl)-1H-pyrazol-1-yl]-1,1-dimethylethyl}-3-(tetrahydro-2H-pyran-4-ylmethyl)urea]: at most 100 nM; `Cc1cc(Nc2nccc(C(F)F)n2)cc(-c2cnn(CC(C)(C)NC(=O)OCCF)c2)c1` [Example 27.10, 2-fluoroethyl {2-[4-(3-{[4-(difluoromethyl)pyrimidin-2-yl]amino}-5-methylphenyl)-1H-pyrazol-1-yl]-1,1-dimethylethyl}carbamate]: at most 100 nM.
On the same count and under the same terms, with `COC(=O)NC(C)(C)Cn1cc(-c2cc(C)cc(Nc3nccc(C(F)F)n3)c2)cn1` [Example 27.11, methyl {2-[4-(3-{[4-(difluoromethyl)pyrimidin-2-yl]amino}-5-methylphenyl)-1H-pyrazol-1-yl]-1,1-dimethylethyl}carbamate] the figure was at most 100 nM; with `COCCOC(=O)NC(C)(C)Cn1cc(-c2cc(C)cc(Nc3nccc(C(F)F)n3)c2)cn1` [Example 27.12, 2-methoxyethyl {2-[4-(3-{[4-(difluoromethyl)pyrimidin-2-yl]amino}-5-methylphenyl)-1H-pyrazol-1-yl]-1,1-dimethylethyl}carbamate], at most 100 nM; with `Cc1cc(Nc2nccc(C(F)F)n2)cc(-c2cnn(CCNS(=O)(=O)C3CC3)c2)c1` [Example 27.13, N-{2-[4-(3-{[4-(difluoromethyl)pyrimidin-2-yl]amino}-5-methylphenyl)-1H-pyrazol-1-yl]ethyl}cyclopropanesulfonamide], at most 100 nM.
Same read-out and setting: with `Cc1cc(Nc2nccc(C(F)F)n2)cc(-c2cnn(CCNS(=O)(=O)N3CCOCC3)c2)c1` [Example 27.14, N-{2-[4-(3-{[4-(difluoromethyl)pyrimidin-2-yl]amino}-5-methylphenyl)-1H-pyrazol-1-yl]ethyl}morpholine-4-sulfonamide] the figure was at most 100 nM; with `Cc1cc(Nc2nccc(C(F)F)n2)cc(-c2cnn(CCNC(=O)NC(C)(C)C)c2)c1` [Example 27.15, 1-tert-butyl-3-{2-[4-(3-{[4-(difluoromethyl)pyrimidin-2-yl]amino}-5-methylphenyl)-1H-pyrazol-1-yl]ethyl}urea], at most 100 nM; with `CCNC(=O)NCCn1cc(-c2cc(C)cc(Nc3nccc(C(F)F)n3)c2)cn1` [Example 27.16, 1-{2-[4-(3-{[4-(difluoromethyl)pyrimidin-2-yl]amino}-5-methylphenyl)-1H-pyrazol-1-yl]ethyl}-3-ethylurea], at most 100 nM.
Turning to `Cc1cc(Nc2nccc(C(F)F)n2)cc(-c2cnn(CCNC(=O)NCC3CCOCC3)c2)c1` [Example 27.17, 1-{2-[4-(3-{[4-(difluoromethyl)pyrimidin-2-yl]amino}-5-methylphenyl)-1H-pyrazol-1-yl]ethyl}-3-(tetrahydro-2H-pyran-4-ylmethyl)urea], the IC50 is at most 100 nM.
As for `Cc1cc(Nc2nccc(C(F)F)n2)cc(-c2cnn(CCNC(=O)OCCF)c2)c1` [Example 27.18, 2-fluoroethyl {2-[4-(3-{[4-(difluoromethyl)pyrimidin-2-yl]amino}-5-methylphenyl)-1H-pyrazol-1-yl]ethyl}carbamate], the IC50 was at most 100 nM.
